Laboratory results as given in ChEMBL document CHEMBL4052754, “Targeting progesterone metabolism in breast cancer with l-proline derived new 14-azasteroids” (Bioorg Med Chem, 2017).
Calls of active or inactive are those of the source. The calls are words filed in the database; no cut-off is given here.

Key:
MCF7 [1] = test: Cytotoxicity against human MCF7 cells after 24 hrs by MTT assay; type: functional, cell-based; conditions: MCF7, 24 h
MDA-MB-231 [2] = test: Cytotoxicity against human MDA-MB-231 cells after 24 hrs by MTT assay; type: functional, cell-based; conditions: MDA-MB-231, 24 h
HEK293 = test: Cytotoxicity against HEK293 cells after 24 hrs by MTT assay; type: cell-based; conditions: Homo sapiens, HEK293, 24 h
MCF7 [3] = test: Cell cycle arrest in human MCF7 cells assessed as increase in sub-G1 population at 0.5 to 10 uM after 24 hrs by propidium iodide staining based flow cytometric analysis; type: functional
MCF7 [4] = test: Cell cycle arrest in human MCF7 cells assessed as increase in G2/M population at 0.5 to 10 uM after 24 hrs by propidium iodide staining based flow cytometric analysis; type: functional
MDA-MB-231 [5] = test: Cell cycle arrest in human MDA-MB-231 cells assessed as increase in sub-G1 population after 24 hrs by flow cytometric analysis; type: functional, cell-based
MDA-MB-231 [6] = test: Cell cycle arrest in human MDA-MB-231 cells assessed as decrease in S phase population after 24 hrs by flow cytometric analysis; type: functional, cell-based
MDA-MB-231 [7] = test: Cell cycle arrest in human MDA-MB-231 cells assessed as increase in G2/M-phase population after 24 hrs by flow cytometric analysis; type: functional, cell-based
MCF7 [8] = test: Induction of apoptosis in human MCF7 cells after 24 hrs by Annexin-V-FITC/propidium iodide staining based flow cytometric analysis; type: functional, cell-based
MDA-MB-231 [9] = test: Induction of apoptosis in human MDA-MB-231 cells after 24 hrs by Annexin-V-FITC/propidium iodide staining based flow cytometric analysis; type: functional, cell-based
MCF7 [10] = test: Induction of mitochondrial membrane potential loss in human MCF7 cells assessed as ratio of green to red fluorescence at 0.5 uM after 24 hrs by JC1 staining based flow cytometric analysis (reference value: 1.41); type: functional
MCF7 [11] = test: Induction of mitochondrial membrane potential loss in human MCF7 cells assessed as ratio of green to red fluorescence at 1 uM after 24 hrs by JC1 staining based flow cytometric analysis (reference value: 1.41); type: functional
MCF7 [12] = test: Induction of mitochondrial membrane potential loss in human MCF7 cells assessed as ratio of green to red fluorescence at 5 uM after 24 hrs by JC1 staining based flow cytometric analysis (reference value: 1.41); type: functional
MDA-MB-231 [13] = test: Induction of mitochondrial membrane potential loss in human MDA-MB-231 cells assessed as ratio of green to red fluorescence at 0.5 uM after 24 hrs by JC1 staining based flow cytometric analysis (reference value: 4.55); type: functional
MDA-MB-231 [14] = test: Induction of mitochondrial membrane potential loss in human MDA-MB-231 cells assessed as ratio of green to red fluorescence at 1 uM after 24 hrs by JC1 staining based flow cytometric analysis (reference value: 4.55); type: functional
MDA-MB-231 [15] = test: Induction of mitochondrial membrane potential loss in human MDA-MB-231 cells assessed as ratio of green to red fluorescence at 5 uM after 24 hrs by JC1 staining based flow cytometric analysis (reference value: 4.55); type: functional
MCF7 [16] = test: Induction of mitochondrial membrane potential loss in human MCF7 cells after 24 hrs by JC1 staining based flow cytometric analysis; type: functional, cell-based
MDA-MB-231 [17] = test: Induction of mitochondrial membrane potential loss in human MDA-MB-231 cells after 24 hrs by JC1 staining based flow cytometric analysis; type: functional, cell-based
MDA-MB-231 [18] = test: Anti-migratory activity against human MDA-MB-231 cells assessed as reduction in cell migration towards wound area at 0.1 uM after 24 hrs by phase contrast microscopic analysis; type: functional, cell-based
MDA-MB-231 [19] = test: Anti-migratory activity against human MDA-MB-231 cells assessed as reduction in cell migration towards wound area at 0.5 to 10 uM after 24 hrs by phase contrast microscopic analysis; type: functional, cell-based
MDA-MB-231 [20] = test: Anti-migratory activity against human MDA-MB-231 cells assessed as reduction in cell migration towards wound area at 50 uM after 24 hrs by phase contrast microscopic analysis relative to control; type: functional; set-up: scale not given: the % may be the effect or the level left
MCF7 [21] = test: Anti-invasive activity against human MCF7 cells assessed as inhibition of TGF-beta induced cell invasion at 0.5 to 1 uM after 24 hrs by crystal violet staining based transwell assay; type: functional
MCF7 [22] = test: Decrease in SRD5A1 level in human MCF7 cells at 1 to 10 uM after 24 hrs by ELISA; type: functional, cell-based
MCF7 [23] = test: Decrease in progesterone level in human MCF7 cells at 1 to 10 uM after 24 hrs by ELISA; type: functional, cell-based
MCF7 [24] = test: Decrease in 5alpha-DHP level in human MCF7 cells after 24 hrs by ELISA; type: functional, cell-based
MCF7 [25] = test: Decrease in 5alpha-DHP level in human MCF7 cells at 1 to 10 uM after 24 hrs by ELISA; type: functional, cell-based

`C1=C2c3ccccc3CC[C@H]2N2C[C@H](OCc3ccccc3)C[C@H]2C1` was tested, and the IC50 (MCF7 [1]) was 5.4 µM, the IC50 (MDA-MB-231 [2]) was 35.6 µM and the IC50 (HEK293) was > 50 µM.

For `C[C@]12CC=C3c4ccccc4CC[C@@H]3N1CCC2`, the IC50 (MCF7 [1]) was 1 µM, the IC50 (MDA-MB-231 [2]) was 1.4 µM and the IC50 (HEK293) was > 50 µM. For the same molecule, the Activity (MCF7 [3]) was “Active”, the Activity (MCF7 [4]) was “Active” and the Activity (MDA-MB-231 [5]) was “Dose-dependent effect”. The Activity (MDA-MB-231 [6]) was “Dose-dependent effect”, the Activity (MDA-MB-231 [7]) was “Dose-dependent effect” and the Activity (MCF7 [8]) was “Dose-dependent effect”. The Activity (MDA-MB-231 [9]) was “Dose-dependent effect”, the Ratio (MCF7 [10]) was 2.51 and the Ratio (MCF7 [11]) was 4.45. It also gave a Ratio (MCF7 [12]) of 8.29, a Ratio (MDA-MB-231 [13]) of 7.8 and a Ratio (MDA-MB-231 [14]) of 9.35. For the same molecule, the Ratio (MDA-MB-231 [15]) was 9.045, the Activity (MCF7 [16]) was “Dose-dependent effect” and the Activity (MDA-MB-231 [17]) was “Dose-dependent effect”. For the same molecule, the Activity (MDA-MB-231 [18]) was “inactive”, the Activity (MDA-MB-231 [19]) was “Active” and the Activity (MDA-MB-231 [20]) was 100%. For the same molecule, the inhibition (MCF7 [21]) was “Active”, the Activity (MCF7 [22]) was “Active” and the Activity (MCF7 [23]) was “Active”. The Activity (MCF7 [24]) was “Dose-dependent effect”.

In the case of `C1=C2c3ccccc3CC[C@H]2N2CCC[C@H]2C1`, the IC50 (MCF7 [1]) is reported as 34.4 µM, the IC50 (MDA-MB-231 [2]) is reported as > 50 µM and the IC50 (HEK293) is reported as > 50 µM.

For `COc1ccc2c(c1)C1=CC[C@@H]3C[C@@H](OCc4ccccc4)CN3[C@@H]1CC2`, the IC50 (MCF7 [1]) was > 50 µM, the IC50 (MDA-MB-231 [2]) was 42.4 µM and the IC50 (HEK293) was > 50 µM.

`C1=C2c3ccccc3CC[C@@H]2N2C[C@H](OCc3ccccc3)C[C@H]2C1` was tested, and the IC50 (MCF7 [1]) was 40.6 µM, the IC50 (MDA-MB-231 [2]) was 45.3 µM and the IC50 (HEK293) was > 50 µM.

With `C[C@]12CC=C3c4ccccc4CC[C@H]3N1CCC2` the IC50 (MCF7 [1]) was 4.3 µM, the IC50 (MDA-MB-231 [2]) was 33.9 µM and the IC50 (HEK293) was > 50 µM.

With `CC(C)(C)NC(=O)[C@H]1CC[C@H]2[C@@H]3CC[C@H]4NC(=O)C=C[C@]4(C)[C@H]3CC[C@]12C` [FINASTERIDE] the IC50 (MCF7 [1]) was 44.1 µM, the IC50 (MDA-MB-231 [2]) was > 50 µM and the IC50 (HEK293) was > 50 µM. The Activity (MCF7 [22]) was “inactive”, the Activity (MCF7 [23]) was “Active” and the Activity (MCF7 [25]) was “inactive”.

`COc1ccc2c(c1)C1=CC[C@@H]3C[C@@H](OCc4ccccc4)CN3[C@H]1CC2` was tested, and the IC50 (MCF7 [1]) was > 50 µM, the IC50 (MDA-MB-231 [2]) was 9.8 µM and the IC50 (HEK293) was > 50 µM.

For `C1=C2c3ccccc3CC[C@@H]2N2CCC[C@H]2C1`, the IC50 (MCF7 [1]) was > 50 µM, the IC50 (MDA-MB-231 [2]) was 47.2 µM and the IC50 (HEK293) was > 50 µM.
